Results as given in US20090291938A1 (TAKEDA PHARMACEUTICAL COMPANY LIMITED, priority 2007, published 2009).

Each compound was assayed on HT29 human colorectal adenocarcinoma cell line (assay: cell proliferation assay (Cell Titer-Glo luminescent cell viability assay)). Details: HT-29, 72 h, read-out: pIC50 (converted).
Type: cell-based
Summary of the method: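 Cells grown in DMEM with 10% FBS and exposed to compounds for 72 h. Viability read by CellTiter-Glo luminescence, expressed as percentage of DMSO-treated cells.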

Row | SMILES | IC50
1 | CN1CCC(NC(=O)c2ccc(Nc3ncc4c(n3)N(C3CCCC3)CC(C)(C)C(=O)N4C)c(OC(F)F)c2)CC1 [Compound 127, 4-(9-Cyclopentyl-5,7,7-trimethyl-6-oxo-6,7,8,9-tetrahydro-5H-pyrimido[4,5-b][1,4]diazepin-2-ylamino)-3-(difluoromethoxy)-N-(1-methylpiperidin-4-yl)benzamide] | > 10 nM

Same assay, conditions: HT-29, cell proliferative assay, HT29 cells, 72 hr treatment, values given as ranges, read-out: pIC50 (converted)

Row | SMILES | IC50
2 | COc1cc(C(=O)NCCN(C)C)ccc1Nc1ncc2c(n1)N(C1CCCC1)CC(C)(C)C(=O)N2C [Compound 92, 4-(9-cyclopentyl-5,7,7-trimethyl-6-oxo-6,7,8,9-tetrahydro-5H-pyrimido[4,5-b][1,4]diazepin-2-ylamino)-N-(2-(dimethylamino)ethyl)-3-methoxybenzamide] | 3.16 to 10 nM
3 | COc1cc(C(=O)N[C@H]2CC[C@H](O)CC2)ccc1Nc1ncc2c(n1)N(C1CCCC1)CC(C)(C)C(=O)N2C [Compound 103, 4-(9-cyclopentyl-5,7,7-trimethyl-6-oxo-6,7,8,9-tetrahydro-5H-pyrimido[4,5-b][1,4]diazepin-2-ylamino)-N-((1R,4R)-4-hydroxycyclohexyl)-3-methoxybenzamide] | 1 to 2.51 nM
4 | COc1cc(C(=O)NC[C@H]2CCCN2)ccc1Nc1ncc2c(n1)N(C1CCCC1)CCC(=O)N2C [Compound 62, (R)-4-(9-cyclopentyl-5-methyl-6-oxo-6,7,8,9-tetrahydro-5H-pyrimido[4,5-b][1,4]diazepin-2-ylamino)-3-methoxy-N-(pyrrolidin-2-ylmethyl)benzamide] | > 10 nM
5 | COc1cc(C(=O)N[C@H]2CCN(C)C2)ccc1Nc1ncc2c(n1)N(C1CCCC1)CC(C)(C)C(=O)N2C [Compound 97, (S)-4-(9-cyclopentyl-5,7,7-trimethyl-6-oxo-6,7,8,9-tetrahydro-5H-pyrimido[4,5-b][1,4]diazepin-2-ylamino)-3-methoxy-N-(1-methylpyrrolidin-3-yl)benzamide] | 1 to 2.51 nM
6 | CONC(=O)c1ccc(Nc2ncc3c(n2)N(C2CCCC2)CC(C)(C)C(=O)N3C)c(OC)c1 [Compound 102, 4-(9-cyclopentyl-5,7,7-trimethyl-6-oxo-6,7,8,9-tetrahydro-5H-pyrimido[4,5-b][1,4]diazepin-2-ylamino)-N,3-dimethoxybenzamide] | < 1 nM
7 | COc1cc(C(=O)NC2CCNCC2)ccc1Nc1ncc2c(n1)N(C1CCCCC1)CC(C)(C)C(=O)N2C [Compound 116, 4-(9-cyclohexyl-5,7,7-trimethyl-6-oxo-6,7,8,9-tetrahydro-5H-pyrimido[4,5-b][1,4]diazepin-2-ylamino)-3-methoxy-N-(piperidin-4-yl)benzamide] | 3.16 to 10 nM
8 | COc1cc(C(=O)N[C@H]2CCCN(C)C2)ccc1Nc1ncc2c(n1)N(C1CCCC1)CCC(=O)N2C [Compound 54, (S)-4-(9-cyclopentyl-5-methyl-6-oxo-6,7,8,9-tetrahydro-5H-pyrimido[4,5-b][1,4]diazepin-2-ylamino)-3-methoxy-N-(1-methylpiperidin-3-yl)benzamide] | 3.16 to 10 nM
9 | COc1cc(C(=O)NC2CCN(S(C)(=O)=O)CC2)ccc1Nc1ncc2c(n1)N(C1CCCC1)CC(C)(C)C(=O)N2C [Compound 91, 4-(9-cyclopentyl-5,7,7-trimethyl-6-oxo-6,7,8,9-tetrahydro-5H-pyrimido[4,5-b][1,4]diazepin-2-ylamino)-3-methoxy-N-(1-(methylsulfonyl)piperidin-4-yl)benzamide] | 1 to 2.51 nM
10 | CCN1CCC(NC(=O)c2ccc(Nc3ncc4c(n3)N(C3CCCCC3)CC(C)(C)C(=O)N4C)c(OC)c2)CC1 [Compound 113, 4-(9-cyclohexyl-5,7,7-trimethyl-6-oxo-6,7,8,9-tetrahydro-5H-pyrimido[4,5-b][1,4]diazepin-2-ylamino)-N-(1-ethylpiperidin-4-yl)-3-methoxybenzamide] | < 1 nM
11 | COc1cc(C(=O)NC2CCN(S(C)(=O)=O)CC2)ccc1Nc1ncc2c(n1)N(C1CCCC1)CCC(=O)N2C [Compound 37, 4-(9-cyclopentyl-5-methyl-6-oxo-6,7,8,9-tetrahydro-5H-pyrimido[4,5-b][1,4]diazepin-2-ylamino)-3-methoxy N-(1-(methylsulfonyl)piperidin-4-yl)benzamide] | 3.16 to 10 nM
12 | COc1cc(C(=O)NCCN2CCCC2=O)ccc1Nc1ncc2c(n1)N(C1CCCC1)CCC(=O)N2C [Compound 46, 4-(9-cyclopentyl-5-methyl-6-oxo-6,7,8,9-tetrahydro-5H-pyrimido[4,5-b][1,4]diazepin-2-ylamino)-3-methoxy-N-(2-(2-oxopyrrolidin-1-yl)ethyl)benzamide] | 3.16 to 10 nM
13 | COc1cc(C(=O)NCCCN(C)C)ccc1Nc1ncc2c(n1)N(C1CCCC1)CC(C)(C)C(=O)N2C [Compound 89, 4-(9-cyclopentyl-5,7,7-trimethyl-6-oxo-6,7,8,9-tetrahydro-5H-pyrimido[4,5-b][1,4]diazepin-2-ylamino)-N-(3-(dimethylamino)propyl)-3-methoxybenzamide] | 3.16 to 10 nM
14 | COc1cc(C(=O)N[C@@H]2CCCNC2)ccc1Nc1ncc2c(n1)N(C1CCCCC1)CC(C)(C)C(=O)N2C [Compound 110, (R)-4-(9-cyclohexyl-5,7,7-trimethyl-6-oxo-6,7,8,9-tetrahydro-5H-pyrimido[4,5-b][1,4]diazepin-2-ylamino)-3-methoxy-N-(piperidin-3-yl)benzamide] | 1 to 2.51 nM

Next, values leading:

Row | IC50 | SMILES
15 | < 1 nM | CCOc1cc(C(=O)NC2CCN(C)CC2)ccc1Nc1ncc2c(n1)N(C1CCCC1)CC(C)(C)C(=O)N2C [Compound 123, 4-(9-cyclopentyl-5,7,7-trimethyl-6-oxo-6,7,8,9-tetrahydro-5H-pyrimido[4,5-b][1,4]diazepin-2-ylamino)-3-ethoxy-N-(1-methylpiperidin-4-yl)benzamide]
16 | 3.16 to 10 nM | COc1cc(C(=O)N[C@@H]2CCCNC2)ccc1Nc1ncc2c(n1)N(C1CCCC1)CC1(CCC1)C(=O)N2C [Compound 181, (R)-4-(9′-cyclopentyl-5′-methyl-6′-oxo-5′,6′,8′,9′-tetrahydrospiro[cyclobutane-1,7′-pyrimido[4,5-b][1,4]diazepine]-2′-ylamino)-3-methoxy-N-(piperidin-3-yl)benzamide]
17 | 3.16 to 10 nM | CC[C@@]1(C)CN(C2CCCC2)c2nc(Nc3ccc(C(=O)NC4CN(C)C4)cc3OC)ncc2N(C)C1=O [Compound 132, (S)-4-(9-cyclopentyl-7-ethyl-5,7-dimethyl-6-oxo-6,7,8,9-tetrahydro-5H-pyrimido[4,5-b][1,4]diazepin-2-ylamino)-3-methoxy-N-(1-methylazetidin-3-yl)benzamide]
18 | < 1 nM | C/C=C\CC1CN(C2CCCC2)c2nc(Nc3ccc(C(=O)NC4CCN(C)CC4)cc3OC)ncc2N(C)C1=O (centres unmarked) [Compound 218, (Z)-4-(7-(but-2-enyl)-9-cyclopentyl-5-methyl-6-oxo-6,7,8,9-tetrahydro-5H-pyrimido[4,5-b][1,4]diazepin-2-ylamino)-3-methoxy-N-(1-methylpiperidin-4-yl)benzamide]
19 | 3.16 to 10 nM | CC[C@]1(C)CN(C2CCCCC2)c2nc(Nc3ccc(C(=O)N[C@H]4CCCNC4)cc3OC)ncc2N(C)C1=O [Compound 151, 4-((R)-9-cyclohexyl-7-ethyl-5,7-dimethyl-6-oxo-6,7,8,9-tetrahydro-5H-pyrimido[4,5-b][1,4]diazepin-2-ylamino)-3-methoxy-N-((S)-piperidin-3-yl)benzamide]
20 | 3.16 to 10 nM | COc1cc(C(=O)N[C@H]2CCN(C)C2)ccc1Nc1ncc2c(n1)N(C1CCCC1)CC1(CC1)C(=O)N2C [Compound 167, (S)-4-(9′-cyclopentyl-5′-methyl-6′-oxo-5′,6′,8′,9′-tetrahydrospiro[cyclopropane-1,7′-pyrimido[4,5-b][1,4]diazepine]-2′-ylamino)-3-methoxy-N-(1-methylpyrrolidin-3-yl)benzamide]
21 | < 1 nM | C=CC[C@H]1CN(C2CCCC2)c2nc(Nc3ccc(C(=O)N[C@H]4CCN(C)C4)cc3OC)ncc2N(C)C1=O [Compound 205, 4-((S)-7-allyl-9-cyclopentyl-5-methyl-6-oxo-6,7,8,9-tetrahydro-5H-pyrimido[4,5-b][1,4]diazepin-2-ylamino)-3-methoxy-N-((S)-1-methylpyrrolidin-3-yl)benzamide]
22 | 1 to 2.51 nM | COc1cc(C(=O)N[C@@H]2CCCN(C)C2)ccc1Nc1ncc2c(n1)N(C1CCCCC1)CC1(CC1)C(=O)N2C [Compound 172, (R)-4-(9′-cyclohexyl-5′-methyl-6′-oxo-5′,6′,8′,9′-tetrahydrospiro[cyclopropane-1,7′-pyrimido[4,5-b][1,4]diazepine]-2′-ylamino)-3-methoxy-N-(1-methylpiperidin-3-yl)benzamide]
23 | 3.16 to 10 nM | C/C=C/CC1CN(C2CCCC2)c2nc(Nc3ccc(C(=O)NC4CCN(C)CC4)cc3OC)ncc2N(C)C1=O (centres unmarked) [Compound 220, (E)-4-(7-(but-2-enyl)-9-cyclopentyl-5-methyl-6-oxo-6,7,8,9-tetrahydro-5H-pyrimido[4,5-b][1,4]diazepin-2-ylamino)-3-methoxy-N-(1-methylpiperidin-4-yl)benzamide]
24 | 1 to 2.51 nM | COc1cc(C(=O)NC2CN(C)C2)ccc1Nc1ncc2c(n1)N(C1CCCCC1)CC1(CC1)C(=O)N2C [Compound 173, 4-(9′-cyclohexyl-5′-methyl-6′-oxo-5′,6′,8′,9′-tetrahydrospiro[cyclopropane-1,7′-pyrimido[4,5-b][1,4]diazepine]-2′-ylamino)-3-methoxy-N-(1-methylazetidin-3-yl)benzamide]
25 | < 1 nM | C=CC[C@H]1CN(C2CCCC2)c2nc(Nc3ccc(C(=O)N[C@H]4CC[C@H](O)CC4)cc3OC)ncc2N(C)C1=O [Compound 197, 4-((S)-7-allyl-9-cyclopentyl-5-methyl-6-oxo-6,7,8,9-tetrahydro-5H-pyrimido[4,5-b][1,4]diazepin-2-ylamino)-N-((1R,4R)-4-hydroxycyclohexyl)-3-methoxybenzamide]
26 | 1 to 2.51 nM | C=CC[C@H]1CN(C2CCCC2)c2nc(Nc3ccc(C(=O)N[C@H]4CCCNC4)cc3OC)ncc2N(C)C1=O [Compound 201, 4-((S)-7-allyl-9-cyclopentyl-5-methyl-6-oxo-6,7,8,9-tetrahydro-5H-pyrimido[4,5-b][1,4]diazepin-2-ylamino)-3-methoxy-N-((S)-piperidin-3-yl)benzamide]
